Test results from US9301923B2, “Lipids, lipid compositions, and methods of using them” (NOVARTIS AG, priority 2009, dated 2016).

What was measured:
[1] = pKa of the lipid by TNS fluorescence; assay type: physicochemical; details: pKa
Procedure, shortened: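 Lipid dissolved in ethanol (2 mM stock) and measured with TNS across eight buffers of differing pH, in water at standard temperature and pressure. Normalized fluorescence intensity plotted against pH and points joined by a smooth line to derive pKa, precise to about 0.2 units.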

[2] = system: PLK-1 mRNA in HepG2 tumors; experiment: HepG2 tumor study, PLK-1 mRNA KD in tumor tissue; assay type: in vivo, human; details: Mus musculus, HepG2, iv, 24 h, HepG2 tumor in nude mice, 3 × 3 mg/kg siRNA iv, tumors harvested 24 hrs after the last dose; read-out: PLK1 % inhibition
Text: (§1) Formulated siRNAs are made up of double stranded siRNA sequences specific to a target mRNA sequence, and are in the form of lipid nucleotid particles (LNPs) containing cationic lipids, stealth lipids and neutral lipids, as provided in the Examples below. The siRNA construct for use in targeting the liver is specific to Factor VII. The siRNA construct for use in targeting tumors is specific to PLK1-424, which is published by Judge et al., See, J Clin Invest. 2009 March; 119(3):661-73; doi: 10.1172/JCI37515). • 1. FVII siRNA duplex sequence
HepG2 tumors are established in female nude mice by sc injection of 5×10^6 cells in 100 ul PBS into the left flank. Mice are randomized into treatment groups 10-14 days after seeding as tumors reached an average size of 150 mm^3. siRNA formulated LNP formulations are administered at 3×3 mg/kg dose levels intravenously via the lateral tail vein calculated on a mg siRNAs/kg basis according to individual animal weights (10 ml/kg injection volume). Mice are euthanized by CO2 inhalation at various time points and the tumors are harvested 24 hrs after the last dose for mRNA quantitation. Lipids with a wide range of pKa (5.3-6.6) are used in the LNP formulations. Tumors are measured in 2 dimensions (width×length) to assess tumor growth using digital calipers. Tumor volume is calculated using the equation [a×b×b/2], where a=largest diameter and b=smallest diameter.
(§2) About 30-50 mg tumor tissue is homogenized in tissue lysis buffer in a Qiagen homogenizer followed by centrifugation to clarify lysates. Total RNA is isolated using RNeasy isolation kit (catalog number 74106) according to the manufacture's protocol. PLK-1 mRNA is analyzed by quantitative PCR and normalized to human GAPDH. Applied Biosystems human PLK-1 gene expression assay Hs00983229_m1 and human GAPDH endogenous control cat number 4326317E are used for mRNA detection.
(§3) The pKa in all tables refers to the pKa of the cationic lipid. Where multiple doses are indicated (e.g., 3×5), the first number indicates the number of doses given and the second number indicates the amount per dose in mg siRNA (biologically active agent) per kg mouse. In general the multiple doses are administered at 24 hour intervals, and tissues for mRNA quantitation are harvested 24 hours after the last dose.

[3] = Particle size and PDI by dynamic light scattering (Malvern Zetasizer); assay type: physicochemical; parameters: Final size: unit not given here; details: for Final size: LNP formulation, Table 10
Procedure, shortened: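 Nanoparticles diluted in PBS to a count rate of about 200-400 kcts and measured by dynamic light scattering; size given as intensity-weighted average diameter, with polydispersity index from the same measurement.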

Factor VII = Factor VII activity assay, in vivo liver delivery of FVII siRNA LNP; parameters: species or system mouse; details: ~48 h
Procedure, shortened: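 Female CD-1 mice (~25 g) given a single i.v. tail-vein dose of FVII siRNA in LNPs (cationic, stealth, neutral lipids), dosed as mg siRNA/kg. Plasma collected ~48 h post-injection; FVII activity read against a standard curve from pooled vehicle-control plasma.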

[4] = system: PLK-1 mRNA in Hep3B tumors; experiment: Hep3B tumor study, PLK-1 mRNA KD in tumor tissue; assay type: in vivo, human; details: for PLK1 inhibition %: Hep3B tumor, mouse, i.v., LNP composition as in the source; for % KD: formulation containing E0011 and S004
Text: as §1
Hep3B tumors are established in female nude mice by sc injection of 7×10^6 cells in 100 ul PBS into the left flank. Mice are randomized into treatment groups 10-14 days after seeding as tumors reached an average size of 100 mm^3. siRNA formulated LNP formulations are administered at various dose levels intravenously via the lateral tail vein calculated on a mg siRNAs/kg basis according to individual animal weights (10 ml/kg injection volume). Mice are euthanized by CO2 inhalation at various time points and the tumors are harvested for mRNA quantitation. Lipids with a wide range of pKa (5.3-6.6) are used in the LNP formulations. Tumors are measured in 2 dimensions (width×length) to assess tumor growth using digital calipers. Tumor volume is calculated using the equation [a×b×b/2], where a equals the largest diameter and b equals the smallest diameter.
as §2, §3

[5] = dose 1 mg/kg siRNA i.v., lipid/no neutral lipid/CHOL/GM-020 NOF 60/0/36/4, N/P 3
[6] = LNP formulation with PLK1 siRNA, helper, neutral and stealth lipid, molar ratio and N/P as in the table
[7] = lipid/no neutral lipid/CHOL/GM-020 NOF 60/0/36/4, N/P 3
[8] = dose 3 mg/kg siRNA i.v., lipid/DSPC/CHOL/AVANTI 880150P 50/28/18/4, N/P 3.43
[9] = dose 3 mg/kg siRNA i.v., lipid/no neutral lipid/CHOL/AVANTI 880150P 50/0/46/4, N/P 3.43
[10] = lipid/DSPC/CHOL/AVANTI 880150P 50/28/18/4, N/P 3.43
[11] = lipid/no neutral lipid/CHOL/AVANTI 880150P 50/0/46/4, N/P 3.43

CCCCCCCC/C=C\CCCCCCCCOCC(CN1CCOCC1)OCCOCCNC(=O)O[C@H]1CC[C@@]2(C)C(=CC[C@H]3[C@@H]4CC[C@H]([C@H](C)CCCC(C)C)[C@@]4(C)CC[C@@H]32)C1 (stereo partly drawn) [E0175]
pKa [1]: 5.67
inhibition at 3 mg/kg [2]: 49%
Final size ([3]; molar ratio 50/43/5/2, N/P 3.8): 93.51
Final size ([3]; molar ratio 60/38/2, N/P 4): 78.74

CCCCC/C=C\C/C=C\CCCCCCCCOC[C@@H](CN1CCC[C@H]1C)OCCCOC(=O)CCC(=O)O[C@H]1CC[C@@]2(C)C(=CCC3C2CC[C@@]2(C)C3CC[C@@H]2[C@H](C)CCCC(C)C)C1 (stereo partly drawn) [E0162]
pKa [1]: 6.07
inhibition at 3 mg/kg [2]: 0%
Final size [3]: 114.4

CCCCC/C=C\C/C=C\CCCCCCCCOCC(CN1CCCCC1)OCCCOCCCO[C@H]1CC[C@@]2(C)C(=CC[C@H]3[C@@H]4CC[C@H]([C@H](C)CCCC(C)C)[C@@]4(C)CC[C@@H]32)C1 (stereo partly drawn) [E0077]
pKa [1]: 5.79
FVII inhib % (Factor VII; [5]): 26.8%
PLK1 inhibition % ([4]; 1 × 5 mg siRNA/kg): 77%
Final size (nm) [3, 6]: 120.8 nm
Final size (nm) [3, 7]: 109.8 nm
PDI [3, 7]: 0.127

CCCCC/C=C\C/C=C\CCCCCCCCCCOCC(CN1CCCC1C)OCCCOCCCO[C@H]1CC[C@@]2(C)C(=CC[C@H]3[C@@H]4CC[C@H]([C@H](C)CCCC(C)C)[C@@]4(C)CC[C@@H]32)C1 (stereo partly drawn) [E0095]
pKa [1]: 5.84
FVII inhib % (Factor VII; [5]): 13%
PLK1 inhibition % ([4]; 1 × 0.1 mg siRNA/kg): 23%
Final size (nm) [3, 6]: 96.09 nm
Final size (nm) [3, 7]: 125.1 nm
PDI [3, 7]: 0.091

CCCCC/C=C\C/C=C\CCCCCCCCCCOCC(CN1CCCCC1)OCCCOCCCO[C@H]1CC[C@@]2(C)C(=CC[C@H]3[C@@H]4CC[C@H]([C@H](C)CCCC(C)C)[C@@]4(C)CC[C@@H]32)C1 (stereo partly drawn) [E0096]
pKa [1]: 5.77
FVII inhib % (Factor VII; [5]): 14.4%
inhibition at 3 mg/kg [2]: 17%
Final size [3]: 94.91
Final size (nm) [3, 7]: 128.8 nm
PDI [3, 7]: 0.162

CCCCC/C=C\C/C=C\CCCCCCCCOCC(CN1CCOCC1)OCCOCCO[C@H]1CC[C@@]2(C)C(=CC[C@H]3[C@@H]4CC[C@H]([C@H](C)CCCC(C)C)[C@@]4(C)CC[C@@H]32)C1 (stereo partly drawn) [E0011]
pKa [1]: 5.32
FVII inhib % (Factor VII; [8]): 86.5%
FVII inhib % (Factor VII; [9]): 92.3%
PLK1 inhibition % ([4]; 1 × 5 mg siRNA/kg): 66%
PLK1 inhibition % ([4]; 3 × 10 mg siRNA/kg): 71%
% KD ([4]; Table 9, 1×10 mg/kg siRNA): 70%
% KD ([4]; Table 9, 3×5 mg/kg siRNA): 67%
Final size ([3]; stealth lipid S018): 113.2
Final size ([3]; stealth lipid S019): 110
Final size ([3]; stealth lipid S020): 74.42
Final size (nm) [3, 10]: 111 nm
PDI [3, 10]: 0.221
Final size (nm) [3, 11]: 108 nm
PDI [3, 11]: 0.23

CCCCCCCC/C=C\CCCCCCCCOCC(CN1CCCCC1)OCCO[C@H]1CC[C@@]2(C)C(=CC[C@H]3[C@@H]4CC[C@H]([C@H](C)CCCC(C)C)[C@@]4(C)CC[C@@H]32)C1 (stereo partly drawn) [E0061]
pKa [1]: 6.28
FVII inhib % (Factor VII; [5]): 52.6%
PLK1 inhibition % ([4]; 1 × 1 mg siRNA/kg): 23%
Final size (nm) [3, 6]: 90.09 nm
Final size (nm) [3, 7]: 139.4 nm
PDI [3, 7]: 0.073

CCCCC/C=C\C/C=C\CCCCCCCCOCC(Cn1ccnc1)OCCOCCO[C@H]1CC[C@@]2(C)C(=CCC3C2CC[C@@]2(C)C3CC[C@@H]2[C@H](C)CCCC(C)C)C1 (stereo partly drawn) [E0051]
pKa [1]: 5.73
FVII inhib % (Factor VII; [8]): 17%
FVII inhib % (Factor VII; [9]): 77.5%
PLK1 inhibition % ([4]; 1 × 10 mg siRNA/kg): 17%
Final size (nm) [3, 6]: 85.77 nm
Final size (nm) [3, 10]: 157.7 nm
PDI [3, 10]: 0.131
Final size (nm) [3, 11]: 142.9 nm
PDI [3, 11]: 0.057

CCCCC/C=C\C/C=C\CCCCCCCCOCC(CN1CCC(OC)C1)OCCCOCCCO[C@H]1CC[C@@]2(C)C(=CC[C@H]3[C@@H]4CC[C@H]([C@H](C)CCCC(C)C)[C@@]4(C)CC[C@@H]32)C1 (stereo partly drawn) [E0088]
pKa [1]: 5.79
FVII inhib % (Factor VII; [5]): 50.8%
PLK1 inhibition % ([4]; 1 × 5 mg siRNA/kg): 71%
Final size (nm) [3, 6]: 146.2 nm
Final size (nm) [3, 7]: 110.7 nm
PDI [3, 7]: 0.080

CCCCC/C=C\C/C=C\CCCCCCCCOCC(CN1CCC(CCC)C1)OCCOCCO[C@H]1CC[C@@]2(C)C(=CCC3C2CC[C@@]2(C)C3CC[C@@H]2[C@H](C)CCCC(C)C)C1 (stereo partly drawn) [E0025]
pKa [1]: 5.45
FVII inhib % (Factor VII; [8]): 63%
FVII inhib % (Factor VII; [9]): 94.2%
PLK1 inhibition % ([4]; 1 × 1 mg siRNA/kg): 27%
Final size (nm) ([3]; LNP formulation with PLK1 siRNA, helper, neutral and stealth lipid, molar ratio and N/P as in the table, stealth lipid S004, molar ratio 45/43/10/2, N/P 4): 118.8 nm
Final size (nm) ([3]; LNP formulation with PLK1 siRNA, helper, neutral and stealth lipid, molar ratio and N/P as in the table, stealth lipid S011, molar ratio 40/48/10/2, N/P 4): 85.63 nm
Final size (nm) ([3]; LNP formulation with PLK1 siRNA, helper, neutral and stealth lipid, molar ratio and N/P as in the table, stealth lipid S011, molar ratio 60/38/2, N/P 4): 95.73 nm
Final size (nm) [3, 10]: 97 nm
PDI [3, 10]: 0.22
Final size (nm) [3, 11]: 73 nm
PDI [3, 11]: 0.12

CCCCC/C=C\C/C=C\CCCCCCCCOCC(CN1CCC(O)C1)OCCOCCO[C@H]1CC[C@@]2(C)C(=CC[C@H]3[C@@H]4CC[C@H]([C@H](C)CCCC(C)C)[C@@]4(C)CC[C@@H]32)C1 (stereo partly drawn) [E0045]
pKa [1]: 4.73
FVII inhib % (Factor VII; [8]): 10.4%
FVII inhib % (Factor VII; [9]): 90.7%
PLK1 inhibition % ([4]; 1 × 1 mg siRNA/kg): 36%
Final size (nm) [3, 6]: 103.2 nm
Final size (nm) [3, 10]: 100 nm
PDI [3, 10]: 0.18
Final size (nm) [3, 11]: 103 nm
PDI [3, 11]: 0.25

CCCCCCCC/C=C\CCCCCCCCOCC(CCN1CCOCC1)OCCOCCO[C@H]1CC[C@@]2(C)C(=CCC3C2CC[C@@]2(C)C3CC[C@@H]2[C@H](C)CCCC(C)C)C1 (stereo partly drawn) [E0180]
PLK1 inhibition % ([4]; 1 × 1 mg siRNA/kg): 16%
inhibition at 3 mg/kg [2]: 0%
Final size (nm) [3, 6]: 77.35 nm
Final size [3]: 77.35
